Measured values as given in patent US8586611B2 (priority 2005, dated 2013).

Legend:
Assay type in all cases: in vivo
[1] = system: Phytophthora infestans; assay: whole plant or invertebrate; settings: tomato late blight; spray the day before inoculation; compounds without asterisk (not 40 or 10 ppm)
[2] = system: Plasmopara viticola; assay: Test B: grape downy mildew, spray 24 h after inoculation (disease rating, 100 = 100% disease control); settings: spray 24 h after inoculation, compounds without asterisk (not 40 or 10 ppm)
Summary of the method: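 This is a curative spray test, applied 24 h after inoculation. Compounds in 50/50 acetone–water with 250 ppm Trem 014 surfactant were sprayed to run-off on P. viticola-infected seedlings, with 200 ppm equating to 500 g/ha. Plants were kept 5 days in a 20 °C growth chamber, then 24 h humid, and scored 0–100 for disease control relative to controls.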

[3] = system: Erysiphe graminis f. sp. tritici; assay: Test E: wheat powdery mildew, spray the day before inoculation (disease rating, 100 = 100% disease control); settings: spray the day before inoculation, compounds without asterisk (not 40 or 10 ppm)
Summary of the method: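 Protective test: spores of E. graminis f. sp. tritici dusted on wheat seedlings one day after run-off spraying of test suspension (acetone/water with 250 ppm surfactant; 200 ppm = 500 g/ha). Ratings after 7 days in growth chamber at 20° C, 100 = full control, 0 = none, relative to controls.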

[4] = system: Phytophthora infestans; assay: whole plant or invertebrate; settings: tomato late blight; spray 17 h after inoculation; compounds without asterisk (not 40 or 10 ppm)

Row | SMILES | Test C disease rating (100 = 100% disease control, 0 = no disease control) [1] [%] | Test B disease rating (100 = 100% disease control, 0 = no disease control) [2] [%] | Test E disease rating (100 = 100% disease control, 0 = no disease control) [3] [%] | Test D disease rating (100 = 100% disease control, 0 = no disease control) [4] [%]
1 | CC[C@H](c1ccccc1)N(C)C(=O)c1csc(C2CCN(C(=O)Cn3nc(C)cc3C)CC2)n1 [compound 118] | 100 | 99 | 0 | 99
2 | Cc1nc(C)n(CC(=O)N2CCC(c3nc(C(=O)N(C)[C@H](C)c4ccccc4)cs3)CC2)n1 [compound 120] | 51 | 7 | 0 | 100
3 | Cc1cn(CC(=O)N2CCC(c3nc(C(=O)N(C)[C@H](C)c4ccccc4)cs3)CC2)c(C)n1 [compound 121] | 47 | 0 | 0 | 0
4 | C[C@H](c1ccccc1)N(C)C(=O)c1csc(C2CCN(C(=O)Cn3cnc(C(F)(F)F)n3)CC2)n1 [compound 122] | 53 | 28 | 17 | 96
5 | CCCc1nc(C(F)(F)F)cn1CC(=O)N1CCC(c2nc(C(=O)N(C)[C@H](C)c3ccccc3)cs2)CC1 [compound 123] | 100 | 13 | 7 | 47
6 | Cc1cc(C(C)C)nn1CC(=O)N1CCC(c2nc(C(=O)N(C)[C@H](C)c3ccccc3)cs2)CC1 [compound 127] | 92 | 0 | 0 | 0
7 | CCc1nc(C)cn1CC(=O)N1CCC(c2nc(C(=O)N(C)[C@H](C)c3ccccc3)cs2)CC1 [compound 128] | 0 | 0 | 0 | 0
8 | Cc1ccc(C)c(CC(=O)N2CCC(c3nc(C(=O)N(C)C4CCCCc5ccccc54)cs3)CC2)c1 (stereo not shown) [compound 129] | 50 | 0 | 0 | 57
9 | Cc1ccc(C)c(CC(=O)N2CCC(c3nc(C(=O)N(C)[C@@H]4CCc5ccccc54)cs3)CC2)c1 [compound 130] | 54 | 99 | 0 | 100
10 | Cc1ccc(C)c(CC(=O)N2CCC(c3nc(C(=O)N(C)[C@H]4CCc5ccccc54)cs3)CC2)c1 [compound 131] | 55 | 77 | 0 | 62
11 | Cc1ccc(C)c(CC(=O)N2CCC(c3nc(C(=O)N(C)[C@H]4CCCc5ccccc54)cs3)CC2)c1 [compound 133] | 53 | 77 | 0 | 79
12 | Cc1ccc(C)c(CC(=O)N2CCC(c3nc(C(=O)N(C)C4CCCc5sccc54)cs3)CC2)c1 (stereo not shown) [compound 134] | 51 | 97 | 0 | 100
13 | Cc1ccc(C)c(CC(=O)N2CCC(c3nc(C(=O)N(C)C4CCCc5occc54)cs3)CC2)c1 (stereo not shown) [compound 135] | 51 | 16 | 0 | 47
14 | Cc1ccc(C)c(CC(=O)N2CCC(c3nc(C(=O)N(C)C4CCSc5ccccc54)cs3)CC2)c1 (stereo not shown) [compound 136] | 100 | 77 | 0 | 80
15 | Cc1ccc(C)c(CC(=O)N2CCC(c3nc(C(=O)N(C)C4CCOc5ccccc54)cs3)CC2)c1 (stereo not shown) [compound 137] | 51 | 100 | 0 | 93
16 | Cc1ccc(C)c(CC(=O)N2CCC(c3nc(C(=O)N(C)C4COc5ccccc54)cs3)CC2)c1 (stereo not shown) [compound 138] | 100 | 91 | 44 | 37
17 | CC(C)c1nccn1CC(=O)N1CCC(c2nc(C(=O)N(C)[C@H](C)c3ccccc3)cs2)CC1 [compound 139] | 0 | 0 | 0 | 0
18 | C[C@H](c1ccccc1)N(C)C(=O)c1csc(C2CCN(C(=O)Cn3cnc(C4CCCCC4)n3)CC2)n1 [compound 140] | 0 | 0 | 0 | 0
19 | C[C@H](c1ccccc1)N(C)C(=O)c1csc(C2CCN(C(=O)Cn3cnc(C(C)(C)C)c3)CC2)n1 [compound 141] | 0 | 0 | 0 | 0
20 | CCC(C)c1cc(C)n(CC(=O)N2CCC(c3nc(C(=O)N(C)[C@H](C)c4ccccc4)cs3)CC2)n1 (stereo partly shown) [compound 142] | 0 | 0 | 87 | 0
21 | COc1ccccc1NC(=O)N1CCC(c2nc(C(=O)N(C)[C@H](C)c3ccccc3)co2)CC1 [compound 157] | 100 | 63 | 0 | 91
22 | CN(Cc1cccnc1)C(=O)c1csc(C2CCN(C(=O)Cc3cccc(C(F)(F)F)c3)CC2)n1 [compound 163] | 55 | 24 | 0 | 0
23 | Cc1cccc(CC(=O)N2CCC(c3nc(C(=O)N(C)Cc4cccnc4)cs3)CC2)c1 [compound 164] | 60 | 1 | 0 | 0
24 | Cc1cccc(CC(=O)N2CCC(c3nc(C(=O)N(C)Cc4ccccn4)cs3)CC2)c1 [compound 165] | 14 | 11 | 0 | 0
25 | Cc1ccc(C)c(CC(=O)N2CCC(c3nc(C(=O)N(C)[C@H](C)C4CCCCC4)cs3)CC2)c1 [compound 166] | 68 | 34 | 0 | 16
26 | CN(Cc1ccccn1)C(=O)c1csc(C2CCN(C(=O)Cc3cccc(C(F)(F)F)c3)CC2)n1 [compound 168] | 8 | 15 | 0 | 0
27 | CN(Cc1ccncc1)C(=O)c1csc(C2CCN(C(=O)Cc3cccc(C(F)(F)F)c3)CC2)n1 [compound 169] | 68 | 8 | 0 | 0
28 | Cc1cccc(CC(=O)N2CCC(c3nc(C(=O)N(C)Cc4ccncc4)cs3)CC2)c1 [compound 170] | 29 | 7 | 0 | 0
